Test results as given in patent publication US20220306695A1, “COMPSTATIN ANALOGUES AND THEIR MEDICAL USES” (priority 2019, published 2022).
Read-outs that look alike come from different tables or passages of the source. Starred links: 1 amine or outer side, 2 acyl side, 3 side chain; linkers in the order of their positions; H or OH if unused. Positions of bridges follow the written chain, without caps; N, C: chain ends. Non-standard residues stand in square brackets, D forms with d. Residues, ends and D or L forms follow the SMILES beside them. Groups on a side chain read outwards from the residue. *: point of attachment. Trp(1-Me) = Cn1cc(C[C@H](N)C(=O)O)c2ccccc21; Abu(4-yl) = O=C([C@H](CC[*:3])N[*:1])[*:2]; C18 diacid = O=C(O)CCCCCCCCCCCCCCCCC(=O)*; γGlu = O=C(O)[C@H](CCC(=O)[*:2])N[*:1]; Nva = CCC[C@H](N)C(=O)O; AEEA = NCCOCCOCC(=O)O; Sar = CNCC(=O)O

Legend:
[1] = tested on: classical complement pathway; test: In vitro haemolysis assay (inhibition of classical complement pathway); assay type: cell-based, human
How it was run: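 Serially diluted compound (9 points) was preincubated 15 min at room temperature with diluted human serum, titrated per batch to give 70-90% maximal haemolysis, in Tris/casein buffer pH 7.4 with Mg2+/Ca2+. Antibody-sensitized sheep erythrocytes were then added for 30 min at 37° C, and the reaction was stopped with EDTA. Haemolysis was read at A405, with IC50 from 4PL fit.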

[2] = Solubility test at 10 mg/mL (visual inspection and light scattering); assay type: physicochemical; details: for Solubility, Condition 1 Acetate pH 4: 10 mg/mL compound in 100 mM acetate pH 4; for Solubility, Condition 2 Acetate pH 5: 10 mg/mL compound in 100 mM acetate pH 5; for Solubility, Condition 3 Phosphate pH 6: 10 mg/mL compound in 100 mM phosphate pH 6; for Solubility, Condition 4 Phosphate pH 7: 10 mg/mL compound in 100 mM phosphate pH 7; for Solubility, Condition 5 Phosphate pH 7.5: 10 mg/mL compound in 100 mM phosphate pH 7.5
Procedure: The solubility of compounds was assessed by measuring light scattering over a pH interval from pH 4 to pH 7.5.
Compounds were dissolved in a stock solution of 20 mg/mL in H2O at pH 2.5 or pH 10.
These stock solutions were diluted 1:1 with 200 mM buffered solution to reach a final solution of 10 mg/mL compound in 100 mM buffer. The 5 investigated conditions were (1) acetate pH 4.0, (2) acetate pH 5.0, (3) phosphate pH 6.0, (4) phosphate pH 7 and (5) phosphate pH 7.5.
Visual inspection included manually checking the 96 well plate for wells that are clear or non-clear. In addition to this a picture of the 96 well plate is taken.
Absorbance was measured at four wavelengths: 280 nm, 325 nm, 340 nm and 360 nm in an UV transparent 96 well microplate in a SpectraMax 190 microplate reader (Molecular Devices).
The criteria for this was a combination of visual inspection and light scattering not exceeding 0.1 AU, where values below 0.1 AU are good in visually clear samples. […]

[3] = Table 3, human serum, sensitized sheep red blood cells, read-out: IC50[nM], in vitro analysis of inhibition of hemolysis

Structure (SMILES)	IC50 [1, 3] [nM]	Solubility, Condition 1 Acetate pH 4 [2]	Solubility, Condition 2 Acetate pH 5 [2]	Solubility, Condition 3 Phosphate pH 6 [2]	Solubility, Condition 4 Phosphate pH 7 [2]	Solubility, Condition 5 Phosphate pH 7.5 [2]	IC50 ([1]; Table 5, different residues at position 3 of Ac-IC(1)XWQDWGEHRC(1)T-NH2, read-out: IC50, CP hemolysis) [nM]	IC50 ([1]; Table 2, human serum, sensitized sheep red blood cells, read-out: CP hemolysis IC50) [nM]
CC[C@H](C)[C@@H]1NC(=O)[C@@H](NC(=O)[C@H](Cc2ccccc2)NC(C)=O)CSSC[C@@H](C(=O)N[C@H](C(=O)NCC(=O)N[C@@H](C)C(=O)N[C@@H](CCC(=O)O)C(=O)N[C@@H](CO)C(N)=O)[C@@H](C)O)NC(=O)[C@H](CCCNC(=N)N)NC(=O)[C@H](Cc2c[nH]cn2)NC(=O)[C@H](CCC(=O)O)NC(=O)CN(C)C(=O)[C@H](Cc2c[nH]c3ccccc23)NC(=O)[C@H](CC(=O)O)NC(=O)[C@H](CCC(N)=O)NC(=O)[C@H](Cc2cn(C)c3ccccc23)NC1=O [Compound 72, Ac-FC(1)I[1-Me-Trp]QDW[Sar]EHRC(1)TGAES-NH2] (Ac-FCI[Trp(1-Me)]QDW[Sar]EHRCTGAES-NH2; disulfide 2-12)	< 100	− (denotes lack of solubility at the given condition, as UV absorbance at 340 nm exceeds 0.1 AU and/or it is visibly turbid or contains particles.)	− (denotes lack of solubility at the given condition, as UV absorbance at 340 nm exceeds 0.1 AU and/or it is visibly turbid or contains particles.)	+ (denotes solubility at the given condition, as determined by UV absorbance being less than 0.1 AU at 340 nm and the sample being clear when manually inspected.)	+ (denotes solubility at the given condition, as determined by UV absorbance being less than 0.1 AU at 340 nm and the sample being clear when manually inspected.)	+ (denotes solubility at the given condition, as determined by UV absorbance being less than 0.1 AU at 340 nm and the sample being clear when manually inspected.)	–	–
CC[C@H](C)[C@@H]1NC(=O)[C@@H](NC(=O)[C@H](Cc2ccccc2)NC(=O)[C@H](C)NC(=O)[C@H](CO)NC(=O)CNC(=O)[C@H](CCC(=O)O)NC(C)=O)CSSC[C@@H](C(=O)N(C)CC(=O)N[C@@H](CCC(=O)O)C(N)=O)NC(=O)[C@H](CCCNC(=N)N)NC(=O)[C@H](Cc2c[nH]cn2)NC(=O)[C@H](CCC(=O)O)NC(=O)CNC(=O)[C@H](Cc2c[nH]c3ccccc23)NC(=O)[C@H](CC(=O)O)NC(=O)[C@H](CCC(N)=O)NC(=O)[C@H](Cc2c[nH]c3ccccc23)NC1=O [Compound 45] (Ac-EGSAFCIWQDWGEHRC[Sar]E-NH2; disulfide 6-16)	< 100	− (denotes lack of solubility at the given condition, as UV absorbance at 340 nm exceeds 0.1 AU and/or it is visibly turbid or contains particles.)	+ (denotes solubility at the given condition, as determined by UV absorbance being less than 0.1 AU at 340 nm and the sample being clear when manually inspected.)	+ (denotes solubility at the given condition, as determined by UV absorbance being less than 0.1 AU at 340 nm and the sample being clear when manually inspected.)	+ (denotes solubility at the given condition, as determined by UV absorbance being less than 0.1 AU at 340 nm and the sample being clear when manually inspected.)	+ (denotes solubility at the given condition, as determined by UV absorbance being less than 0.1 AU at 340 nm and the sample being clear when manually inspected.)	–	–
CC[C@H](C)[C@@H]1NC(=O)[C@@H](NC(=O)[C@H](Cc2ccccc2)NC(=O)[C@H](CCC(=O)O)NC(=O)[C@H](CO)NC(C)=O)CSSC[C@@H](C(=O)N(C)CC(=O)N[C@@H](CCC(=O)O)C(=O)N[C@@H](C)C(N)=O)NC(=O)[C@H](CCCNC(=N)N)NC(=O)[C@H](Cc2c[nH]cn2)NC(=O)[C@H](CCC(=O)O)NC(=O)CN(C)C(=O)[C@H](Cc2c[nH]c3ccccc23)NC(=O)[C@H](CC(=O)O)NC(=O)[C@H](CCC(N)=O)NC(=O)[C@H](Cc2cn(C)c3ccccc23)NC1=O [Compound 76, Ac-SEFC(1)I[1-Me-Trp]QDW[SarlEHRC(1)[Sar]EA-NH2] (Ac-SEFCI[Trp(1-Me)]QDW[Sar]EHRC[Sar]EA-NH2; disulfide 4-14)	< 100	− (denotes lack of solubility at the given condition, as UV absorbance at 340 nm exceeds 0.1 AU and/or it is visibly turbid or contains particles.)	− (denotes lack of solubility at the given condition, as UV absorbance at 340 nm exceeds 0.1 AU and/or it is visibly turbid or contains particles.)	+ (denotes solubility at the given condition, as determined by UV absorbance being less than 0.1 AU at 340 nm and the sample being clear when manually inspected.)	+ (denotes solubility at the given condition, as determined by UV absorbance being less than 0.1 AU at 340 nm and the sample being clear when manually inspected.)	+ (denotes solubility at the given condition, as determined by UV absorbance being less than 0.1 AU at 340 nm and the sample being clear when manually inspected.)	–	–
CC[C@H](C)[C@@H]1NC(=O)[C@@H](NC(=O)[C@@H](NC(=O)[C@H](CCC(=O)O)NC(C)=O)[C@@H](C)CC)CSSC[C@@H](C(=O)N[C@H](C(=O)N[C@@H](CCC(=O)O)C(=O)NCC(=O)N[C@@H](CCC(=O)O)C(N)=O)[C@@H](C)O)NC(=O)[C@H](CCCNC(=N)N)NC(=O)[C@H](Cc2c[nH]cn2)NC(=O)[C@H](CCC(=O)O)NC(=O)CNC(=O)[C@H](Cc2c[nH]c3ccccc23)NC(=O)[C@H](CC(=O)O)NC(=O)[C@H](CCC(N)=O)NC(=O)[C@H](Cc2c[nH]c3ccccc23)NC1=O [Compound 34] (Ac-EICIWQDWGEHRCTEGE-NH2; disulfide 3-13)	< 250	–	–	–	–	–	–	–
CC[C@H](C)[C@@H]1NC(=O)[C@@H](NC(=O)[C@H](Cc2ccccc2)NC(=O)[C@H](CCC(=O)O)NC(C)=O)CSCC[C@@H](C(=O)N(C)CC(=O)N[C@@H](CCC(=O)O)C(=O)N[C@@H](C)C(=O)NCCOCCOCC(=O)NCCOCCOCC(=O)N[C@@H](CCCCNC(=O)CC[C@H](NC(=O)CNC(=O)CC[C@H](NC(=O)CCCCCCCCCCCCCCCCC(=O)O)C(=O)O)C(=O)O)C(N)=O)NC(=O)[C@H](CCCNC(=N)N)NC(=O)[C@H](Cc2c[nH]cn2)NC(=O)[C@H](CCC(=O)O)NC(=O)CNC(=O)[C@H](Cc2c[nH]c3ccccc23)NC(=O)[C@H](CCC(=O)O)NC(=O)[C@H](CCC(N)=O)NC(=O)[C@H](Cc2cn(C)c3ccccc23)NC1=O [Compound 158, Ac-EFA(1)I[1-Me-Trp]QEWGEHRhC(1)[Sar]EA[Peg3][Peg3]-K([17-carboxy-heptadecanoyl][γGlu]G[γGlu])-NH2] (Ac-EFCI[Trp(1-Me)]QEWGEHR[Abu(4-yl)][Sar]EA[AEEA][AEEA]K([γGlu-Gly-γGlu-C18 diacid])-NH2; thioether 3-13)	< 250	–	–	–	–	–	–	–
CCC[C@@H]1NC(=O)[C@@H](NC(=O)[C@@H](NC(C)=O)[C@@H](C)CC)CSSC[C@@H](C(=O)N[C@H](C(N)=O)[C@@H](C)O)NC(=O)[C@H](CCCNC(=N)N)NC(=O)[C@H](Cc2c[nH]cn2)NC(=O)[C@H](CCC(=O)O)NC(=O)CNC(=O)[C@H](Cc2c[nH]c3ccccc23)NC(=O)[C@H](CC(=O)O)NC(=O)[C@H](CCC(N)=O)NC(=O)[C@H](Cc2c[nH]c3ccccc23)NC1=O [Norvaline, reference compound] (Ac-IC[Nva]WQDWGEHRCT-NH2; disulfide 2-12)	–	–	–	–	–	–	> 1000	–
CC[C@H](C)[C@H](NC(C)=O)C(=O)N[C@H]1CSSC[C@@H](C(=O)N[C@H](C(N)=O)[C@@H](C)O)NC(=O)[C@H](CCCNC(=N)N)NC(=O)[C@H](Cc2c[nH]cn2)NC(=O)[C@H](C)NC(=O)CNC(=O)[C@H](Cc2c[nH]c3ccccc23)NC(=O)[C@H](CC(=O)O)NC(=O)[C@H](CCC(N)=O)NC(=O)[C@H](Cc2c[nH]c3ccccc23)NC(=O)[C@H](C(C)C)NC1=O [Compound 4W9A, reference compound]	< 500	–	–	–	–	–	–	250
CC[C@H](C)[C@@H]1NC(=O)[C@@H](NC(=O)[C@H](Cc2ccccc2)NC(=O)[C@H](CCC(=O)O)NC(=O)[C@H](CO)NC(C)=O)CSSC[C@@H](C(=O)N(C)CC(=O)N[C@@H](CCC(=O)O)C(=O)NCC(=O)N[C@@H](CCC(=O)O)C(=O)NCCOCCOCC(=O)NCCOCCOCC(=O)NCCOCCOCC(=O)N[C@@H](CCCCNC(=O)CC[C@H](NC(=O)CNC(=O)CC[C@H](NC(=O)CCCCCCCCCCCCCCCCC(=O)O)C(=O)O)C(=O)O)C(N)=O)NC(=O)[C@H](CCCNC(=N)N)NC(=O)[C@H](Cc2c[nH]cn2)NC(=O)[C@H](CCC(=O)O)NC(=O)CNC(=O)[C@H](Cc2c[nH]c3ccccc23)NC(=O)[C@H](CC(=O)O)NC(=O)[C@H](CCC(N)=O)NC(=O)[C@H](Cc2cn(C)c3ccccc23)NC1=O [Compound 143] (Ac-SEFCI[Trp(1-Me)]QDWGEHRC[Sar]EGE[AEEA][AEEA][AEEA]K([γGlu-Gly-γGlu-C18 diacid])-NH2; disulfide 4-14)	< 100	–	–	–	–	–	–	–
